Test results taken from patent publication US20240293464A1, “TISSUE REPAIR” (priority 2021, published 2024).

Key:
Type in all cases: in vivo, horse
[1] = tested on: Tendon injury; experiment: Echogenicity ratio of tendon lesion or injured tendon to adjacent healthy tendon (Example 9)
Source text: Structures composed of different tissue will have different echogenicities. The health of a tissue such as a tendon can be assessed by comparing the echogenicity of the tissue with that of a corresponding healthy tissue. Healthy tendons comprising native tissue and normal architecture are usually hyperechoic and appear white on the sonogram; they are capable of reflecting ultrasound that is cast over the tissue. An injured tendon comprising a lesion will appear as less hyperechoic, and more hypoechoic as tendon fibers are interrupted and defects are usually filled with fluid, blood, or fat. Severe lesions will be anechoic, and will display as completely dark on the sonogram. […] The echogenicity of a tendon lesion was assessed by comparing grey scale statistics of the tendon lesion with the values of healthy adjacent tendon tissue (FIG. 18(b)). Due to equine anatomy, there is always a directly adjacent healthy tendon to use as a control (ultrasonography is […] by depth of tissue). The statistics comprised determining the mean pixel intensity at a number of random points on the lesion and the healthy tendon, and calculating a mean value for the echogenicity of each tissue. A ratio of mean echnogenicity of the lesion and the healthy tissue was determined to assess the extent of damage/healing at the lesion. Vitamin A supplement used, its administration, and the subjects investigated, comprise those of Example 7.

[2] = tested on: connective tissue injuries (tendon/ligament lesions); experiment: Post-treatment maintenance dose, double-blind randomised placebo-controlled trial (Example 10)
Source text: Maintenance dose of vitamin A palmitate (retinyl palmitate) in a vehicle, delivered in dry feed at 8,000 IU per kg feed dry matter.
The methodology and subjects of the investigation comprise those of Example 7.
The trial was a double-blind randomised controlled trial.

[3] = tested on: injured tendon/ligament; experiment: Effect of activity level on connective tissue improvement (Example 11); conditions: week 7, full-treatment doses
Method: The vitamin A supplement used, its administration, and the subjects of the investigation comprise those of Example 7. Improvement (as a % of baseline) of the injured tendon/ligament was performed at 7 weeks into the trial. All 14 horses were administered full-treatment doses of vitamin A supplement from week 0 to week 7 whilst being put to work. 7 horses were put on light/no work and 7 on full work. The allocation of each horse into one of the two groups was determined by the respective owner of the horse, who decided based on whether they could afford for the horse to be put on light work (and thus investigate the isolated effect of vitamin A supplement on lesion progression) or whether the horse was required to be put back to full work.

[4] = tested on: tendon/ligament injuries; experiment: Single armed pilot trial in equine connective tissue injuries, lesion size by ultrasonography (Example 7)
Method: The time since injury of each horse was noted. […] Side effects and tolerability were also recorded.
14 horses with 15 injured limbs were enrolled in the study between March and May 2021. The injuries comprised 9 tendon and 6 ligament injuries, with 12 injuries on the left side of the horse and 3 on the right. The mean time since injury was ˜ 12 months. The tendon injuries comprised 2 acute injuries (<1 month old) and 7 chronic injuries, with a mean time since injury of 13.1 months, and a range of 9-20 months. The ligamentous injuries comprised 6 chronic injuries, with a mean time since injury of 14.3 months and a range of 4-30 months.
All statistical analysis was performed on SPSS v27. Missing values were handled by last observation carried forward. Descriptive statistics were used to describe baseline and follow-up values. The results were first tested for normality using the Shapiro-Wilk test. The results at weeks 3, 5 and 7 were then analysed compared to baseline using two-tailed paired Student's t-tests once normality was proven. One-tailed Pearson correlation test was performed to determine if outcomes was correlated with time since injury as we hypothesise that older, more established injuries may benefit less from our supplementation.

[5] = tested on: tendon/ligament lesions; experiment: Equine tendon/ligament lesions from original injury through treatment (Example 8); conditions: oral 160,000 IU once per day
Method: Side effects and tolerability were also recorded. The administration of vitamin A supplement, and the vitamin A supplement used, were the same as that of Example 7. 7 horses with 7 injured limbs were enrolled in the study between March and May 2021. The injuries comprised 3 tendon and 4 ligament injuries. The inclusion criteria were polo horses with diagnosed tendon/ligament injuries regardless of time since injury. The exclusion criteria were horses with acute connective tissue injuries. All statistical analysis was performed on SPSS v27. Missing values were handled by last observation carried forward. Descriptive statistics were used to describe baseline and follow-up values. The results were first tested for normality using the Shapiro-Wilk test. The results at weeks 3, 5 and 7 were then analysed compared to baseline using two-tailed paired Student's t-tests once normality was proven.

CCCCCCCCCCCCCCCC(=O)OC/C=C(C)/C=C/C=C(C)/C=C/C1=C(C)CCCC1(C)C [vitamin A supplement, Vitamin A palmitate]
% increase of mean echogenicity ratio (lesion/healthy tendon) ([1]; baseline to week 7): 32.7% | Mean echogenicity ratio of tendon lesion to adjacent healthy tendon ([1]; baseline, 1 = perfect regeneration of native tendon): 0.52 | Mean echogenicity ratio of injured tendon (area of lesion excluded) to adjacent healthy tendon ([1]; week 0): 0.76 | Mean echogenicity ratio of injured tendon (area of lesion excluded) to adjacent healthy tendon ([1]; week 7, oral 160,000 IU once per day): 0.82 | Mean echogenicity ratio of tendon lesion to adjacent healthy tendon ([1]; week 7, oral 160,000 IU once per day, 1 = perfect regeneration): 0.69 | Change in lesion size from week 7 to week 14, intragroup ([2]; maintenance dose 80,000 IU/day, compared with placebo group): −24.5% | Mean lesion size of the maintenance dose group ([2]; week 14, after 7 weeks of 80,000 IU/day following 7 weeks of full dose, 31.73% at week 7): ~20.00% | Lesion health on ultrasonogram in one re-injured subject ([2]; week 14, after 7 weeks of maintenance dose, FIG. 21): the health of this particular lesion deteriorated | Improvement from baseline ([3]; horses on full work (n=7)): 45.05% | Improvement from baseline ([3]; horses on light or no work (n=7)): 30.35% | Mean lesion size ([4]; baseline, 15 injuries): 41.44% | Percentage improvement, baseline to week 7 ([4]; outlier at 20 months since injury, complete avulsion of the ligament): −25% | Percentage improvement, baseline to week 7 ([4]; two outlier subjects at 12 months since injury): 100% | Mean lesion size ([4]; week 3, oral 160,000 IU once per day, p=0.169 vs baseline): 35.87% | Mean lesion size ([4]; week 5, oral 160,000 IU once per day, p<0.001 vs baseline): 28.37% | Mean lesion size ([4]; week 7, oral 160,000 IU once per day, p=0.006 vs baseline): 31.73% | Change in ligament lesion size, baseline to week 7 ([5]; ligaments, outlier excluded (n=3)): reduction in the size of two of the three lesions | Mean improvement in lesion size, baseline to week 7 ([5]; tendons n=3, chronic injuries, p=0.04): 30.62%
